Consider 23 compounds from patent US12503454B2, “LPA receptor antagonists and uses thereof” (Gilead Sciences, Inc., priority 2021, dated 2025).

In the test the target is human LPAR1 (Homo sapiens, UniProt Q92633). Briefly: LPAR1 intracellular calcium mobilization assay (antagonist mode, FLIPR). The format is cell-based. As to conditions: CHO-K1 EDG2 cells expressing human LPAR1; test compound 0.5 nM to 10 μM pre-incubated 60 minutes at 37° C., then LPA 18:2 at EC80 concentration (100 nM). How it is done: In vitro LPAR1 activity was measured in an intracellular calcium mobilization assay. CHO-K1 EDG2 cells (DiscoverX cat #93-0644C2) expressing human LPAR1 (NM_001401.3) were seeded in a total volume of 25 μL of Dulbecco's Modification of Eagle's Medium (DMEM) with 10% Fetal Bovine Serum, 1× PenStrepGlutamine, 300 μg/ml Hygromycin, and 800 μg/ml G418 into 384-well tissue culture plate (Grenier #781091) at 15,000 cells/well and incubated at 37° C. overnight. Prior to testing, 25 μL Calcium Loading Dye Component A (FLIPR Calcium 6 Assay Kit Molecular Device # R8190) and 2.5 mM Probenecid (Invitrogen # P36400, prepared fresh) in Hank's Balanced Salt Solution (Corning #21-023-CV), 20 mM HEPES (Corning #25-060-CI), 0.1% Bovine Serum Albumin (Sigma-Aldrich # A7906-500G) was add to the cells for 60 minutes at 37° C.
Agonist dose curves of LPA 18:2 (Avanti Polar Lipids cat #857138, 0.5 nM to 10 μM) were recorded to determine the LPA 18:2 EC80 for subsequent antagonist assays. For agonist dose curves, cells were removed from the incubator 2 hours after dye loading and transferred to the FLIPR Tetra instrument (Molecular Devices, San Jose, CA). Calcium mobilization was monitored for 5 min and 10 μL 6×LPA in HBSS/20 mM Hepes/0.1% bovine serum albumin (BSA) was added to the cells 5 seconds into the assay.
To determine the LPAR1 antagonist activity of test compounds, cells were pre-incubated with test compound at a dose range of 0.5 nM to 10 μM, followed by LPA at EC80 concentration (100 nM). After dye loading, cells were removed from the incubator and 0.3 μL of 200× antagonist was added. Cells were incubated for 60 minutes at 37° C. Antagonist activity was measured on a FLIPR Tetra. Calcium mobilization was monitored for 3.5 minutes and 10 μL 6×EC80 LPA in HBSS, 20 mM HEPES, and 0.1% BSA was added to the cells 5 seconds into the assay. Signal amplitude (Maximum minus minimum) values were plotted against log10 of antagonist concentration using Dose Response Tool (Gilead Sciences Inc.) to determine […].
To assess the antagonistic potential of exemplified compounds […] were determined for Compounds 1 to 66 in the LPAR1 calcium mobilization assay. The compound numbers correspond to the compound numbers in Examples 1 to 18. N/A=not available.
(In general: A change in cytosolic calcium serves as a functional read-out for many receptors and channels.)

SMILES strings stand for the structures.

Chain of human LPAR1 (Q92633 whole entry): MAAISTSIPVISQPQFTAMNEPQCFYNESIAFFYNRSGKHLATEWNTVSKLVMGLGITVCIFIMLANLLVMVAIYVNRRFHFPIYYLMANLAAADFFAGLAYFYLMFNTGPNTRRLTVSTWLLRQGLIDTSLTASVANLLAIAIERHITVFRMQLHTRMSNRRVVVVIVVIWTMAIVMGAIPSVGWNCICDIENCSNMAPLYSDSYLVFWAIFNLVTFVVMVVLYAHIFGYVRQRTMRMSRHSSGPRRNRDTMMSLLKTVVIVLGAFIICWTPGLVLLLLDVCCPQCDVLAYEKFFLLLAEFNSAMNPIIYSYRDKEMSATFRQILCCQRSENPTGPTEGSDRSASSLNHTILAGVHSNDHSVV

The EC50 is the concentration needed to bring the measured effect to its halfway point. Turning to `C[C@@H](OC(=O)Nc1c(-c2ccc(C(=O)Nc3ccncc3)cn2)nnn1C)c1cccnc1Cl` [Compound 1, (R)-1-(2-chloropyridin-3-yl)ethyl (1-methyl-4-(5-(pyridin-4-ylcarbamoyl)pyridin-2-yl)-1H-1,2,3-triazol-5-yl)carbamate], the EC50 came out at 75.8 nM.

Regarding `C[C@@H](OC(=O)Nc1c(-c2ccc(C(=O)NC34CC(Cl)(C3)C4)cn2)nnn1C)c1cccnc1Cl` [Compound 2, (R)-1-(2-chloropyridin-3-yl)ethyl (4-(5-((3-chlorobicyclo[1.1.1]pentan-1-yl)carbamoyl)pyridin-2-yl)-1-methyl-1H-1,2,3-triazol-5-yl)carbamate], the EC50 came to 8.1 nM.

For the compound `C[C@@H](OC(=O)Nc1c(-c2ccc(C(=O)NC3CC(F)(F)C3)cn2)nnn1C)c1cccnc1Cl` [Compound 3, (R)-1-(2-chloro-pyridin-3-yl)-ethyl (4-(5-((3,3-difluoro-cyclobutyl)-carbamoyl)-pyridin-2-yl)-1-methyl-1H-1,2,3-triazol-5-yl)carbamate], the EC50 is 1420 nM.

Take `C[C@@H](OC(=O)Nc1c(-c2ccc(C(=O)NC34CC(F)(C3)C4)cn2)nnn1C)c1cccnc1Cl` [Compound 4, (R)-1-(2-chloro-pyridin-3-yl)-ethyl (4-(5-((3-fluorobicyclo-[1.1.1]pentan-1-yl)carbamoyl)-pyridin-2-yl)-1-methyl-1H-1,2,3-triazol-5-yl)carbamate]: the half-maximal effective concentration (EC50) amounted to 142 nM.

Consider `C[C@@H](OC(=O)Nc1c(-c2ccc(C(=O)NC34CC(C#N)(C3)C4)cn2)nnn1C)c1cccnc1Cl` [Compound 5, (R)-1-(2-chloro-pyridin-3-yl)-ethyl (4-(5-((3-cyanobicyclo [1.1.1]pentan-1-yl)carbamoyl)-pyridin-2-yl)-1-methyl-1H-1,2,3-triazol-5-yl)carbamate], for which the EC50 stood at 42.9 nM.

As to `C[C@@H](OC(=O)Nc1c(-c2ccc(C(=O)NC34CC(C(F)F)(C3)C4)cn2)nnn1C)c1cccnc1Cl` [Compound 6], the EC50 stood at 56.1 nM.

Consider `C[C@@H](OC(=O)Nc1c(-c2ccc(C(=O)Nc3cccnc3)cn2)nnn1C)c1cccnc1Cl` [Compound 7, (R)-1-(2-chloro-pyridin-3-yl)-ethyl (1-methyl-4-(5-(pyridin-3-ylcarbamoyl)-pyridin-2-yl)-1H-1,2,3-triazol-5-yl)carbamate], for which the EC50 stood at 334 nM.

Take `C[C@@H](OC(=O)Nc1c(-c2ccc(C(=O)NC34CC(C)(C3)C4)cn2)nnn1C)c1cccnc1Cl` [Compound 8, (R)-1-(2-chloro-pyridin-3-yl)-ethyl (1-methyl-4-(5-((3-methyl-bicyclo[1.1.1]-pentan-1-yl)-carbamoyl)-pyridin-2-yl)-1H-1,2,3-triazol-5-yl)carbamate]: the EC50 stood at 30.4 nM.

As for `C[C@@H](OC(=O)Nc1c(-c2ccc(C(=O)Nc3ccc(F)nc3)cn2)nnn1C)c1cccnc1Cl` [Compound 9, (R)-1-(2-chloro-pyridin-3-yl)-ethyl (4-(5-((6-fluoropyridin-3-yl)carbam-oyl)pyridin-2-yl)-1-methyl-1H-1,2,3-triazol-5-yl)carbamate], the EC50 stood at 325 nM.

With `C[C@@H](OC(=O)Nc1c(-c2ccc(C(=O)NC34CC(C3)C4)cn2)nnn1C)c1cccnc1Cl` [Compound 10, (R)-1-(2-chloro-pyridin-3-yl)-ethyl (4-(5-(bicyclo[1.1.1]-pentan-1-yl-carbamoyl)-pyridin-2-yl)-1-methyl-1H-1,2,3-triazol-5-yl)carbamate], the EC50 turned out to be 439 nM.

Consider `COC12CC(NC(=O)c3ccc(-c4nnn(C)c4NC(=O)O[C@H](C)c4cccnc4Cl)nc3)(C1)C2` [Compound 11, (R)-1-(2-chloro-pyridin-3-yl)-ethyl (4-(5-((3-methoxybicyclo-[1.1.1]pentan-1-yl)carbamoyl)-pyridin-2-yl)-1-methyl-1H-1,2,3-triazol-5-yl)carbamate], for which the EC50 was determined as 62.7 nM.

With `COC(=O)C12CC(NC(=O)c3ccc(-c4nnn(C)c4NC(=O)O[C@H](C)c4cccnc4Cl)nc3)(C1)C2` [Compound 12, (R)-methyl 3-(6-(5-(((1-(2-chloro-pyridin-3-yl)-ethoxy)carbon-yl)amino)-1-methyl-1H-1,2,3-triazol-4-yl)nicotinamido)-bicyclo[1.1.1]-pentane-1-carbox-ylate], the EC50 is 26.5 nM.

Consider `C[C@@H](OC(=O)Nc1c(-c2ccc(C(=O)NC34CC(CO)(C3)C4)cn2)nnn1C)c1cccnc1Cl` [Compound 13], for which the EC50 came to 251 nM.

`C[C@@H](OC(=O)Nc1c(-c2ccc(C(=O)Nc3ccccc3)cn2)nnn1C)c1cccnc1Cl` [Compound 14, (R)-1-(2-chloro-pyridin-3-yl)-ethyl (1-methyl-4-(5-(phenyl-carbamoyl)-pyridin-2-yl)-1H-1,2,3-triazol-5-yl)carbamate]: the EC50 worked out at 256 nM.

On to `C[C@@H](OC(=O)Nc1c(-c2ccc(C(=O)NC34CC(C(F)(F)F)(C3)C4)cn2)nnn1C)c1cccnc1Cl` [Compound 15, (R)-1-(2-chloro-pyridin-3-yl)ethyl (1-methyl-4-(5-((3-(trifluoro-methyl)bicyclo-[1.1.1]pentan-1-yl)carbamoyl)-pyridin-2-yl)-1H-1,2,3-triazol-5-yl)carbamate], for which the EC50 came to 26.2 nM.

On to `C[C@@H](OC(=O)Nc1c(-c2ccc(C(=O)NC3CCOCC3)cn2)nnn1C)c1cccnc1Cl` [Compound 16, (R)-1-(2-chloro-pyridin-3-yl)-ethyl (1-methyl-4-(5-((tetrahydro-2H-pyran-4-yl)-carbamoyl)-pyridin-2-yl)-1H-1,2,3-triazol-5-yl)carbamate], for which the EC50 is 3590 nM.

For the compound `C[C@@H](OC(=O)Nc1c(-c2ccc(C(=O)Nc3ccc(N4CCOCC4)cc3)cn2)nnn1C)c1cccnc1Cl` [Compound 17, (R)-1-(2-chloro-pyridin-3-yl)-ethyl (1-methyl-4-(5-((4-morph-olinophenyl)-carbamoyl)-pyridin-2-yl)-1H-1,2,3-triazol-5-yl)carbamate], the EC50 worked out at 649 nM.

Take `C[C@@H](OC(=O)Nc1c(-c2ccc(C(=O)NC34CC(C#N)(C3)C4)cn2)nnn1C)c1cc(F)cnc1F` [Compound 18, (R)-1-(2,5-difluoropyridin-3-yl)ethyl (4-(5-((3-cyanobicyclo[1.1.1]pentan-1-yl)carbamoyl)pyridin-2-yl)-1-methyl-1H-1,2,3-triazol-5-yl)carbamate]: the EC50 was 91.2 nM.

Take `C[C@@H](OC(=O)Nc1c(-c2ccc(C(=O)Nc3ccnc(C(F)(F)F)c3)cn2)nnn1C)c1cc(F)cnc1F` [Compound 19, (R)-1-(2,5-difluoropyridin-3-yl)ethyl (1-methyl-4-(5-((2-(trifluoromethyl)pyridin-4-yl)carbamoyl)pyridin-2-yl)-1H-1,2,3-triazol-5-yl)carbamate]: the EC50 worked out at 16.6 nM.

For the compound `C[C@@H](OC(=O)Nc1c(-c2ccc(C(=O)NC34CC(F)(C3)C4)cn2)nnn1C)c1cc(F)cnc1F` [Compound 20, (R)-1-(2,5-difluoro-pyridin-3-yl)ethyl (4-(5-((3-fluoro-bicyclo[1.1.1]-pentan-1-yl)-carbamoyl)pyridin-2-yl)-1-methyl-1H-1,2,3-triazol-5-yl)carbamate], the concentration giving a half-maximal response (EC50) is 313 nM.

In the case of `C[C@@H](OC(=O)Nc1c(-c2ccc(C(=O)NC34CC(Cl)(C3)C4)cn2)nnn1C)c1cc(F)cnc1F` [Compound 21, (R)-1-(2,5-difluoro-pyridin-3-yl)ethyl (4-(5-((3-chloro-bicyclo[1.1.1]-pentan-1-yl)-carbamoyl)pyridin-2-yl)-1-methyl-1H-1,2,3-triazol-5-yl)carbamate], the EC50 is 44.8 nM.

Turning to `C[C@@H](OC(=O)Nc1c(-c2ccc(C(=O)NC34CC(C(F)(F)F)(C3)C4)cn2)nnn1C)c1cc(F)cnc1F` [Compound 22, (R)-1-(2,5-difluoro-pyridin-3-yl)ethyl (1-methyl-4-(5-((3-(trifluorometh-yl)bicyclo[1.1.1]-pentan-1-yl)carbam-oyl)pyridin-2-yl)-1H-1,2,3-triazol-5-yl)carbamate], the EC50 is 84.8 nM.

As for `C[C@@H](OC(=O)Nc1c(-c2ccc(C(=O)NC34CC(C(F)F)(C3)C4)cn2)nnn1C)c1cc(F)cnc1F` [Compound 23, (R)-1-(2,5-difluoro-pyridin-3-yl)ethyl (4-(5-((3-(difluoro-methyl)bicyclo-[1.1.1]pentan-1-yl)carbamoyl)-pyridin-2-yl)-1-methyl-1H-1,2,3-triazol-5-yl)-carbamate], the EC50 was found to be 159 nM.
